Test results published in paper PMC6556873, “Rapid Covalent-Probe Discovery by Electrophile-Fragment Screening” (Journal of the American Chemical Society, 2019).
Like-named read-outs stand apart in the source and are kept apart here.

Legend:
[1] = in vitro; design: species or system HB2, HEK293; conditions: human, ccd841 cells
[2] = in vitro; design: species or system CCD841, HEK293; conditions: human, hb2 cells, read-out: HB-2 Cells Viability (%)
[3] = target: T1, PCAF (Homo sapiens, UniProt Q92831); design: Intact protein LC/MS covalent labelling, fragments in pools of five, 200 uM each, 4 °C; conditions: 24 h, 4 °C, pool of five; 200 µM; covalent
T1 construct: gene KAT2B
Protocol: (§1) Incubations were performed at 200 μM for each compound and 2 μM of protein (10 μM for BSA) for 24 h at 4 °C with moderate shaking. Incubation buffers varied among proteins (PBS pH 7.4 for QSOX1 and BSA; 10 mM HEPES pH 7.5, 0.3 M NaCl, 0.5 mM TCEP for PCAF, UPS8, and NUDT7; […]; 10 mM Na2HPO4 pH 7.5 100 mM NaCl 5 mM β-mercaptoethanol for NV3CP; 20 mM Na phosphate pH 7.5 for NNMT; […]. The reaction was stopped by quenching with formic acid, 0.4% final concentration. Each protein was incubated with the electrophilic library in pools of five compounds per well. The pool’s composition maximized the difference in mass between fragments in the same well. Incubations were performed with each fragment at 200 μM, for 24 h at 4 °C, to allow the screening of proteins that are not stable for long time periods at higher temperatures. Following incubation, we used intact protein [compound left out] chromatography/mass spectrometry (LC/MS) to identify the fragments and quantify their labeling (Figure 3A). […] There was good agreement between the percent of labeling of NUDT7 by 100 random individual compounds and that obtained in pools of five (R^2=0.78; Figure S6 and Data set 2 in the Supporting Information).

[4] = target: T2, NUDT7 (Homo sapiens, UniProt P0C024); design: Intact protein LC/MS covalent labelling, fragments in pools of five, 200 uM each, 4 °C; conditions: 24 h, 4 °C, pool of five; 200 µM; covalent
T2 construct: residues 14-235, E. coli, pNIC28-Bsa4, N-terminal His6 tag removed by TEV, construct 26672 Da
Protocol: as §1

[5] = target: T3, BSA (Bos taurus, UniProt P02769); design: Intact protein LC/MS covalent labelling, fragments in pools of five, 200 uM each, 4 °C; conditions: 24 h, 4 °C, pool of five; 200 µM; covalent
T3 construct: gene ALB
Protocol: as §1

[6] = target: T4, OTUB2 (OTUB2A) (Homo sapiens, UniProt Q96DC9); design: Intact protein LC/MS covalent labelling, fragments in pools of five, 200 uM each, 4 °C; conditions: 24 h, 4 °C, pool of five; 200 µM; covalent
T4 construct: full length residues 1-234, E. coli BL21(DE3)-R3, His tag removed by TEV, construct 27312 Da
T4 sequence (Q96DC9 1-234): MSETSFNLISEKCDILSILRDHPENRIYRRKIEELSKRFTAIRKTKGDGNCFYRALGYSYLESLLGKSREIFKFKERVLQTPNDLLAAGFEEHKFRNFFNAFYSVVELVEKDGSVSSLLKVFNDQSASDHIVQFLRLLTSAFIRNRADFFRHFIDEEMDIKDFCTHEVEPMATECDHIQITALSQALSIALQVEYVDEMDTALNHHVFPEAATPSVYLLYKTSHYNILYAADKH
Protocol: as §1

[7] = in vitro; design: species or system HB2, CCD841; conditions: human, hek293 cells

T1 sequence (Q92831 whole entry, the tested form may be a part): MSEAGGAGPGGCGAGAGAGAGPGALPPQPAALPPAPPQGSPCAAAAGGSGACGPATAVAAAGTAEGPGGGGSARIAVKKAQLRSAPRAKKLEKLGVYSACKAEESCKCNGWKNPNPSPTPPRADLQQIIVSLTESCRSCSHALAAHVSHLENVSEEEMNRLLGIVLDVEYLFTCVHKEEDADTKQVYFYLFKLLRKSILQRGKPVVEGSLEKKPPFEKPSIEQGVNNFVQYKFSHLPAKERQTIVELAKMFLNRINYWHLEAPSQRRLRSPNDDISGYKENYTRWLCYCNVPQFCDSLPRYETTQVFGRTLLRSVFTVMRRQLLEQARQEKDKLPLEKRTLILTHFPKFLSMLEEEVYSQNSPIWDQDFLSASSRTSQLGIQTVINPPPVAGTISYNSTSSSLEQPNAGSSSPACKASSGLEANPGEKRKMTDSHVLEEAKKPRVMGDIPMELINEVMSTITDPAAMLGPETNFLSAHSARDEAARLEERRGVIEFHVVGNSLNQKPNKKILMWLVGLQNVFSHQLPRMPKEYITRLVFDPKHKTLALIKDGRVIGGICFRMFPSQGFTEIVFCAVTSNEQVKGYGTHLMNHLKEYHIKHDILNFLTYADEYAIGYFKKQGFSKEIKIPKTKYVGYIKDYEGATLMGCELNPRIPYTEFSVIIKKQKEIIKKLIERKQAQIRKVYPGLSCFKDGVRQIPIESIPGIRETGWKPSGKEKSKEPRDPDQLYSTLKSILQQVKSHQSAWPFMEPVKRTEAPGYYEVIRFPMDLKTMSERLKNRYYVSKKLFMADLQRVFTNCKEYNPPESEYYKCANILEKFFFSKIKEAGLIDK
T3 sequence (P02769 whole entry, the tested form may be a part): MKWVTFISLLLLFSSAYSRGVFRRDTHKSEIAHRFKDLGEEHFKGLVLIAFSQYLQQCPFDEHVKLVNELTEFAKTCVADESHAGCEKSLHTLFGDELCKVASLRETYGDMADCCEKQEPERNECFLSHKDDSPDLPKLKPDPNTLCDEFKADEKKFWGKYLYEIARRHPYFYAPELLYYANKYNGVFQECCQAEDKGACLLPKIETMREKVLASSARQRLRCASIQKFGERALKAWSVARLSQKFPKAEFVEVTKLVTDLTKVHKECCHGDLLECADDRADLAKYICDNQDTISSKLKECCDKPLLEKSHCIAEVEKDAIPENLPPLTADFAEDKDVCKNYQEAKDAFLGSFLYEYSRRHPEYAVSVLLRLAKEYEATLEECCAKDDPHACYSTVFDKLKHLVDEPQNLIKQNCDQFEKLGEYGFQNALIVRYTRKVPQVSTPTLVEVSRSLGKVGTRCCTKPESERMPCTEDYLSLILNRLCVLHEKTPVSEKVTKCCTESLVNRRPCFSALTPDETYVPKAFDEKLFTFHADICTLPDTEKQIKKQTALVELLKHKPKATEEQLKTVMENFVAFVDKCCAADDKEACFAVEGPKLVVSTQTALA
T2 sequence (P0C024 14-235): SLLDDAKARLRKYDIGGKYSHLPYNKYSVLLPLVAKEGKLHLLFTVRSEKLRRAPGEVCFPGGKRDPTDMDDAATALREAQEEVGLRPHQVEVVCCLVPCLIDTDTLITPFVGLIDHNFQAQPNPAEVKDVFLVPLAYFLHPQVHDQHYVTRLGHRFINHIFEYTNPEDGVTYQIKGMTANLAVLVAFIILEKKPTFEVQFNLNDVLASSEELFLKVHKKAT

## O=C(CCl)Nc1ccc(F)cc1F [PCM-0103004]
[1]
  viability at 48 h, 10 µM: 62.1%
[2]
  viability at 48 h, 10 µM: 54.2%
[3]
  PCAF: 0
[4]
  NUDT7: 0
[5]
  BSA: 0
[6]
  OTUB2: 0.26
[7]
  viability at 48 h, 10 µM: 32%

## O=C(CCl)N1CCCc2cccc(F)c21 [PCM-0103071]
[1]
  viability at 48 h, 10 µM: 65.9%
[2]
  viability at 48 h, 10 µM: 62.4%
[3]
  PCAF: 0
[4]
  NUDT7: 0.4
[5]
  BSA: 0
[6]
  OTUB2: 0
[7]
  viability at 48 h, 10 µM: 25.1%

## COc1ccccc1NC(=O)CCl [PCM-0102236]
[1]
  viability at 48 h, 10 µM: 79%
[2]
  viability at 48 h, 10 µM: 71%
[3]
  PCAF: 0
[4]
  NUDT7: 0
[5]
  BSA: 0
[6]
  OTUB2: 0.28
[7]
  viability at 48 h, 10 µM: 58.4%

## O=C(CCl)Nc1cccc(C(=O)O)c1 [PCM-0102696]
[1]
  viability at 48 h, 10 µM: 86.9%
[2]
  viability at 48 h, 10 µM: 90.3%
[3]
  PCAF: 0
[4]
  NUDT7: 0
[5]
  BSA: 0
[6]
  OTUB2: 0.11
[7]
  viability at 48 h, 10 µM: 84.6%

## CC(C)N(C(=O)CCl)C1CCCCC1 [PCM-0102941]
[1]
  viability at 48 h, 10 µM: 26%
[2]
  viability at 48 h, 10 µM: 85.7%
[3]
  PCAF: 0
[4]
  NUDT7: 0.17
[5]
  BSA: 0.3
[6]
  OTUB2: 0
[7]
  viability at 48 h, 10 µM: 56.3%

## O=C(CCl)N1CCC(c2ccccc2)=N1 [PCM-0102150]
[1]
  viability at 48 h, 10 µM: 71.8%
[2]
  viability at 48 h, 10 µM: 31.2%
[3]
  PCAF: 0
[4]
  NUDT7: 0
[5]
  BSA: 0
[6]
  OTUB2: 0
[7]
  viability at 48 h, 10 µM: 32.7%

## C=CC(=O)N1CC2CC3CC2C1C3OC (stereo not drawn) [PCM-0102649]
[1]
  viability at 48 h, 10 µM: 118%
[2]
  viability at 48 h, 10 µM: 107%
[3]
  PCAF: 0
[4]
  NUDT7: 0
[5]
  BSA: 0
[6]
  OTUB2: 0.15
[7]
  viability at 48 h, 10 µM: 117%

## C=CC(=O)Nc1ccnn1-c1ccccc1C [PCM-0102643]
[1]
  viability at 48 h, 10 µM: 88.7%
[2]
  viability at 48 h, 10 µM: 87.4%
[3]
  PCAF: 0
[4]
  NUDT7: 0.12
[5]
  BSA: 0
[6]
  OTUB2: 0
[7]
  viability at 48 h, 10 µM: 64.4%

## C=CC(=O)Nc1ccc([N+](=O)[O-])cc1 [PCM-0102740]
[1]
  viability at 48 h, 10 µM: 71.6%
[2]
  viability at 48 h, 10 µM: 77.4%
[3]
  PCAF: 0
[4]
  NUDT7: 0.05
[5]
  BSA: 0
[6]
  OTUB2: 0
[7]
  viability at 48 h, 10 µM: 87.6%

## C=CC(=O)Nc1ccccc1[N+](=O)[O-] [PCM-0102742]
[1]
  viability at 48 h, 10 µM: 66.4%
[2]
  viability at 48 h, 10 µM: 41.2%
[3]
  PCAF: 0
[4]
  NUDT7: 0.41
[5]
  BSA: 0
[6]
  OTUB2: 0
[7]
  viability at 48 h, 10 µM: 65.8%

## Cl.O=C(CCl)N1CCN(c2ncccn2)CC1 [PCM-0102093]
[1]
  viability at 48 h, 10 µM: 83.3%
[2]
  viability at 48 h, 10 µM: 57.5%
[3]
  PCAF: 0
[4]
  NUDT7: 0
[5]
  BSA: 0
[6]
  OTUB2: 0
[7]
  viability at 48 h, 10 µM: 63.9%

## O=C(CCl)NC(=O)c1cccs1 [PCM-0102222]
[1]
  viability at 48 h, 10 µM: 105%
[2]
  viability at 48 h, 10 µM: 110%
[3]
  PCAF: 0
[4]
  NUDT7: 0
[5]
  BSA: 0.2
[6]
  OTUB2: 0
[7]
  viability at 48 h, 10 µM: 109%

## CN(C)C(=O)c1cccc(NC(=O)CCl)c1 [PCM-0102345]
[1]
  viability at 48 h, 10 µM: 61.4%
[2]
  viability at 48 h, 10 µM: 52.9%
[3]
  PCAF: 0
[4]
  NUDT7: 0.1
[5]
  BSA: 0
[6]
  OTUB2: 0
[7]
  viability at 48 h, 10 µM: 13.8%

## O=C(CCl)NCc1ccc(F)cc1 [PCM-0102192]
[1]
  viability at 48 h, 10 µM: 76.1%
[2]
  viability at 48 h, 10 µM: 86.9%
[3]
  PCAF: 0
[4]
  NUDT7: 0
[5]
  BSA: 0
[6]
  OTUB2: 0.31
[7]
  viability at 48 h, 10 µM: 77.8%

## CS(C)(=O)=NC(=O)CCl [PCM-0102969]
[1]
  viability at 48 h, 10 µM: 97.5%
[2]
  viability at 48 h, 10 µM: 96.1%
[3]
  PCAF: 0
[4]
  NUDT7: 0
[5]
  BSA: 0
[6]
  OTUB2: 0
[7]
  viability at 48 h, 10 µM: 102%

## CC(C)(C)c1cc(NC(=O)CCl)on1 [PCM-0102348]
[1]
  viability at 48 h, 10 µM: 59.9%
[2]
  viability at 48 h, 10 µM: 32.8%
[3]
  PCAF: 0
[4]
  NUDT7: 0
[5]
  BSA: 0
[6]
  OTUB2: 0
[7]
  viability at 48 h, 10 µM: 60.9%

## Cc1cccc(N2CCN(C(=O)CCl)CC2)c1.Cl [PCM-0102185]
[1]
  viability at 48 h, 10 µM: 65.7%
[2]
  viability at 48 h, 10 µM: 13.1%
[3]
  PCAF: 0
[4]
  NUDT7: 0.05
[5]
  BSA: 0
[6]
  OTUB2: 0
[7]
  viability at 48 h, 10 µM: 35.9%

## O=C(CCl)Nc1cc2c(cc1Cl)OCCCO2 [PCM-0102331]
[1]
  viability at 48 h, 10 µM: 57.1%
[2]
  viability at 48 h, 10 µM: 17.2%
[3]
  PCAF: 0
[4]
  NUDT7: 0.36
[5]
  BSA: 0
[6]
  OTUB2: 0.26
[7]
  viability at 48 h, 10 µM: 10.3%

## CC(C#N)(NC(=O)CCl)C1CC1 (stereo not drawn) [PCM-0102664]
[1]
  viability at 48 h, 10 µM: 89.6%
[2]
  viability at 48 h, 10 µM: 99.7%
[3]
  PCAF: 0
[4]
  NUDT7: 0
[5]
  BSA: 0
[6]
  OTUB2: 0
[7]
  viability at 48 h, 10 µM: 80.8%

## C=CC(=O)NC1CC(C)(C)OC1(C)C (stereo not drawn) [PCM-0102562]
[1]
  viability at 48 h, 10 µM: 114%
[2]
  viability at 48 h, 10 µM: 107%
[3]
  PCAF: 0
[4]
  NUDT7: 0
[5]
  BSA: 0
[6]
  OTUB2: 0
[7]
  viability at 48 h, 10 µM: 94.8%

## O=C(CCl)Nc1nc(-c2ccc(F)c(F)c2)cs1 [PCM-0102244]
[1]
  viability at 48 h, 10 µM: 76.5%
[2]
  viability at 48 h, 10 µM: 6.9%
[3]
  PCAF: 0
[4]
  NUDT7: 0.53
[5]
  BSA: 0.15
[6]
  OTUB2: 0.29
[7]
  viability at 48 h, 10 µM: 0.9%

## Cc1ccc(Cl)cc1NC(=O)CCl [PCM-0102354]
[1]
  viability at 48 h, 10 µM: 44.6%
[2]
  viability at 48 h, 10 µM: 16.3%
[3]
  PCAF: 0
[4]
  NUDT7: 0
[5]
  BSA: 0
[6]
  OTUB2: 0
[7]
  viability at 48 h, 10 µM: 9.3%

## O=C(CCl)Nc1ccc(Cl)cc1 [PCM-0102120]
[1]
  viability at 48 h, 10 µM: 55.2%
[2]
  viability at 48 h, 10 µM: 16.7%
[3]
  PCAF: 0
[4]
  NUDT7: 0.18
[5]
  BSA: 0
[6]
  OTUB2: 0.23
[7]
  viability at 48 h, 10 µM: 2.7%

## C=CC(=O)N1CCC(S(=O)(=O)NC)C1 (stereo not drawn) [PCM-0102463]
[1]
  viability at 48 h, 10 µM: 104%
[2]
  viability at 48 h, 10 µM: 97.2%
[3]
  PCAF: 0
[4]
  NUDT7: 0
[5]
  BSA: 0
[6]
  OTUB2: 0
[7]
  viability at 48 h, 10 µM: 99.6%

## Cc1c(C#N)sc(NC(=O)CCl)c1C#N [PCM-0102371]
[1]
  viability at 48 h, 10 µM: 102%
[2]
  viability at 48 h, 10 µM: 94.3%
[3]
  PCAF: 0
[4]
  NUDT7: 0
[6]
  OTUB2: 0
[7]
  viability at 48 h, 10 µM: 87.5%

## O=C(Nc1ccccc1)NN(C(=O)CCl)c1ccccc1 [PCM-0102957]
[1]
  viability at 48 h, 10 µM: 1.1%
[2]
  viability at 48 h, 10 µM: 3.7%
[3]
  PCAF: 0
[4]
  NUDT7: 1
[6]
  OTUB2: 0
[7]
  viability at 48 h, 10 µM: 0.8%

## C=CC(=O)N1CCC(Cc2ccccn2)CC1 [PCM-0102473]
[1]
  viability at 48 h, 10 µM: 112%
[2]
  viability at 48 h, 10 µM: 100%
[3]
  PCAF: 0
[4]
  NUDT7: 0
[6]
  OTUB2: 0
[7]
  viability at 48 h, 10 µM: 98.6%

## O=C(CCl)Nc1nc2ccc(Br)cc2s1 [PCM-0102126]
[1]
  viability at 48 h, 10 µM: 92.7%
[2]
  viability at 48 h, 10 µM: 83.6%
[3]
  PCAF: 0
[4]
  NUDT7: 1
[6]
  OTUB2: 0.12
[7]
  viability at 48 h, 10 µM: 92.5%
